The numbers were not newly measured in patent publication US7019016B2, “NMDA NR2B antagonists for treatment” (Pfizer Inc, priority 2000, dated 2006), which cites them from elsewhere.

SMILES strings stand for the structures.

For data set [1] the following is noted: animal models of pain perception.
Data set [2] addresses NMDA receptors comprised of NR1/NR2B subunits (Homo sapiens, UniProt Q05586+Q13224). The following applies: NR1/NR2B subunits compared to NR1/NR2A, NR2C, or NR2D subunits.

Sequence of NMDA receptors comprised of NR1/NR2B subunits (Q13224 27-1484, other chains not shown): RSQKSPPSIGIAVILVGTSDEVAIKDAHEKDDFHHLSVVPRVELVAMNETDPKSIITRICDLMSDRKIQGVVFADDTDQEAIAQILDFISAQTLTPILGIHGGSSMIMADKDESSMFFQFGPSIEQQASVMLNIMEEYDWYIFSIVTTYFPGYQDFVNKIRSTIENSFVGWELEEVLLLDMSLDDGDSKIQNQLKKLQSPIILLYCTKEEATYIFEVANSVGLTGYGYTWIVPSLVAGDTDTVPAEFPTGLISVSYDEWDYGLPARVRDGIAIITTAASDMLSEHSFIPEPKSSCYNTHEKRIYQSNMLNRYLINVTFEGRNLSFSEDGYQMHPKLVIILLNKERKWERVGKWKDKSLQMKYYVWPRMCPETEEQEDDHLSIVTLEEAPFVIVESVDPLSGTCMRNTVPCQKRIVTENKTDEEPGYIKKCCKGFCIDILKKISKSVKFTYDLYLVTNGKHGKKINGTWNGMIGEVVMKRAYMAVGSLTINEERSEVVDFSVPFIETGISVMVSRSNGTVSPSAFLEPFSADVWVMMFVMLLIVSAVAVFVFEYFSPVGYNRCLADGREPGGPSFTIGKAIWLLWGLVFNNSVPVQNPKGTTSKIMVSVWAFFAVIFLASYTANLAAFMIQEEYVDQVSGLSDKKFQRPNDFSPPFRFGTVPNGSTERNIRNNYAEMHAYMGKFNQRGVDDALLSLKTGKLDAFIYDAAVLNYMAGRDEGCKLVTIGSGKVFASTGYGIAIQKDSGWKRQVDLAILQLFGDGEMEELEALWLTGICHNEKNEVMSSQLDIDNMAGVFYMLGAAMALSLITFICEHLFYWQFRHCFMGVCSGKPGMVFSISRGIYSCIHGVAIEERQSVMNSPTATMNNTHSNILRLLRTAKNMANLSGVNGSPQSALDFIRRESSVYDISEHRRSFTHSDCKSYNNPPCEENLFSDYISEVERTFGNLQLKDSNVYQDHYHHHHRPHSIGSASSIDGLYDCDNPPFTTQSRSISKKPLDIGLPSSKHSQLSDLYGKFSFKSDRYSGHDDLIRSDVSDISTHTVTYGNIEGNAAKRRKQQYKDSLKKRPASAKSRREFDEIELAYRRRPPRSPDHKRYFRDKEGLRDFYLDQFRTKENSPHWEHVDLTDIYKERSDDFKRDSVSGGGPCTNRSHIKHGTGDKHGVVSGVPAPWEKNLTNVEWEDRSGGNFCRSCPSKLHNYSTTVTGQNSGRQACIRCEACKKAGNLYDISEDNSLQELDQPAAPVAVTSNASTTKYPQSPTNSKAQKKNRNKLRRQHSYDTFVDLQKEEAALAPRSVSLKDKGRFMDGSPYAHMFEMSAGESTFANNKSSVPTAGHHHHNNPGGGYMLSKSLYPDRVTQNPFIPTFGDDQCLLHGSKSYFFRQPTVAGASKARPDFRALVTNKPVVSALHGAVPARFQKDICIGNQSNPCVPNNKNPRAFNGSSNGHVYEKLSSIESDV

Take `CC(C(O)c1ccc(O)cc1)N1CCC(Cc2ccccc2)CC1` (centres unmarked) [ifenprodil]: in data set [1], the analgesic activity result is “significant analgesic activity”. Further, the “blockade of ion current through NMDA receptors” value in data set [2] is “more potent and efficacious”.
